Biological target: T1, recombinant full-length PDE2A protein (Homo sapiens, UniProt O00408)
T1 construct: Expression of recombinant full-length PDE2A protein in insect Sf9 cells; GST (N); made in house; host or cells: insect Sf9 cells (baculovirus)
Assay: Evaluation of PDE2 phosphodiesterase inhibitory activity in vitro (fluorescence polarization, Transcreener AMP2/GMP2)
Assay type: biochemical
Details: IC50 classes; substrate 1 μM cGMP; room temperature one hour
Experimental: Experimental objective: The substituted Alexa Fluor 633 fluorescent dye on the AMP/GMP antibodies was detected by the fluorescence polarization analysis to determine the concentration of AMP/GMP produced in the reaction system, which was used to calculate the IC50 values of the test compounds against PDE2 phosphodiesterase.
The measured buffer solution: 10 mM Tris-HCl, pH 7.5, 5 mM MgCl2, 0.01% Brij 35, 1 mM DTT, and 1% DMSO.
Enzyme: Expression of recombinant full-length PDE2A protein in insect Sf9 cells using N-terminal GST-tag with baculovirus.
Transcreener® AMP^2/GMP^2 antibody, AMP2/GMP2 AlexaFluor 633 fluorescent dye.
The enzyme solution was prepared using freshly prepared buffer solution, and then added to the reaction holes, the DMSO solutions of the test compounds were added by the Echo550 non-contact nanoliter acoustic pipetting system, and then pre-incubated at room temperature for 10 minutes, the reaction was initiated by the addition of the substrate (1 μM cGMP), and then reacted at room temperature for one hour. And then the detection system (Transcreener® AMP^2/GMP^2 antibody, AMP2/GMP2 AlexaFluor 633 fluorescent dye) was added, reacted at room temperature for 90 minutes, the fluorescence polarization was detected using Ex/Em 620/688.
The fluorescence polarization intensity was converted to nM concentration by AMP/GMP standard curve, The relative enzyme activity relative to DMSO blank was calculated, IC50 values and curves were calculated using Prism software packages (GraphPad Software, San Diego Calif., USA).

T1 sequence (O00408 whole entry, species assumed): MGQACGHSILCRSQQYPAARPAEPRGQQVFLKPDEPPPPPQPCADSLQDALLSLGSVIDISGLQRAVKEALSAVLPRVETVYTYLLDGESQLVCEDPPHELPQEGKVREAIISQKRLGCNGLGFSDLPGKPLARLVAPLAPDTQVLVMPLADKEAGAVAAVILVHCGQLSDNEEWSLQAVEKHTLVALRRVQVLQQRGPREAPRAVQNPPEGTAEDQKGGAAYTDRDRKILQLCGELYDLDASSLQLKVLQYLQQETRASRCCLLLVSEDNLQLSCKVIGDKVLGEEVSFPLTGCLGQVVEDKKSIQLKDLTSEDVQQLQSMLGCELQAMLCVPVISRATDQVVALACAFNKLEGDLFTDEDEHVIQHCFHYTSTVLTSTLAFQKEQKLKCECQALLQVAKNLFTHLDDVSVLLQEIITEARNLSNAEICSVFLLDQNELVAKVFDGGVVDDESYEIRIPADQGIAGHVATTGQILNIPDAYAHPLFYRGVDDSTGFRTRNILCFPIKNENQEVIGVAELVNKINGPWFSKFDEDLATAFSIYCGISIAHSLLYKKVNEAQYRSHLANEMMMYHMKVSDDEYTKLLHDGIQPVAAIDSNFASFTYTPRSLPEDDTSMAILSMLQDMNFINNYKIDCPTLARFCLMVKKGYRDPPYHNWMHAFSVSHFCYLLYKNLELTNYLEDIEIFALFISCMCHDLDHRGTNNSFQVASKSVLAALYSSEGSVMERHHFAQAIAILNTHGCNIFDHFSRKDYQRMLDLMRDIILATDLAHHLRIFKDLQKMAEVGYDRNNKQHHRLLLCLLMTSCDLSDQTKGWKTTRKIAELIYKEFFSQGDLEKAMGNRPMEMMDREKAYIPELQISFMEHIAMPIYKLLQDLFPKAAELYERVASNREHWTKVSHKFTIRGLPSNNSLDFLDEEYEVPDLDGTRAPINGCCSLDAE

| Molecule | IC50 [µM] |
| --- | --- |
| COCC1(Cn2c(=O)c3c(ncn3CC3CC3)n(C)c2=O)CCC(O)(C(F)(F)F)CC1 (stereo not shown) [Embodiment 52] | 10 to 50 |
| Cn1cnc2c1c(=O)n(C[C@H]1CC[C@H](C3(O)CC3)CC1)c(=O)n2C [Embodiment 21, 1-[[trans-4-(1-hydroxycyclopropyl)cyclohexyl]methyl]-3,7-dimethylpurine-2,6-dione] | 10 to 50 |
| Cn1c(=O)n(CCCCC(C)(O)C(F)(F)F)c(=O)c2c1ncn2C1CC1 (stereo not shown) [Embodiment 47, 7-Cyclopropyl-3-methyl-1-(6,6,6-trifluoro-5-hydroxy-5-methylhexyl)-1H-purine-2,6(3H,7H)-dione] | 10 to 50 |
| CCn1cnc2c1c(=O)n(CCCCC(C)(O)C(F)(F)F)c(=O)n2C (stereo not shown) [Embodiment 43, 7-Ethyl-3-methyl-1-(6,6,6-trifluoro-5-hydroxy-5-methylhexyl)-1H-purine-2,6(3H,7H)-dione] | 10 to 50 |
| CCC(O)(CC)c1ccc(Cn2c(=O)c3c(ncn3C)n(C)c2=O)cc1 [Embodiment 25, 1-(4-(3-Hydroxypentan-3-yl)benzyl)-3,7-dimethyl-1H-purine-2,6(3H,7H)-dione] | 1 to 10 |
| Cn1cnc2c1c(=O)n(Cc1csc(C(C)(O)C(F)(F)F)n1)c(=O)n2C (stereo not shown) [Embodiment 33, 3,7-Dimethyl-1-((2-(1,1,1-trifluoro-2-hydroxypropan-2-yl)thiazol-4-yl)methyl)-1H-purine-2,6-(3H,7H)-dione] | 10 to 50 |
| Cn1cnc2c1c(=O)n(CCCCC1(O)CC1)c(=O)n2C [Embodiment 3, 1-(4-(1-Hydroxycyclopropyl)butyl)-3,7-dimethyl-1H-purine-2,6(3H,7H)-dione] | 10 to 50 |
| 3,7-Dimethyl-1-[[3-[2,2,2-trifluoro-1-hydroxy-1-(trifluoromethyl)ethyl]cyclobutyl]methyl]purine-2,6-dione [Embodiment 8 isomer 1] | 1 to 10 |
| Cc1sc(C(C)(O)C(F)(F)F)nc1Cn1c(=O)c2c(ncn2CC2CC2)n(C)c1=O (stereo not shown) [Embodiment 54, 7-(Cyclopropylmethyl)-3-methyl-1-((5-methyl-2-(1,1,1-trifluoro-2-hydroxypropan-2-yl)thiazol-4-yl)methyl)-1H-purine-2,6-(3H,7H)-dione] | 1 to 10 |
| Cc1nc(C(C)(O)C(F)(F)F)sc1CCn1c(=O)c2c(ncn2C)n(C)c1=O (stereo not shown) [Embodiment 36, 3,7-Dimethyl-1-(2-(4-methyl-2-(1,1,1-trifluoro-2-hydroxypropan-2-yl)thiazol-5-yl)ethyl)-1H-purine-2,6-(3H,7H)-dione] | 10 to 50 |
| Cn1cnc2c1c(=O)n(Cc1cnc(C(C)(O)C(F)(F)F)s1)c(=O)n2C (stereo not shown) [Embodiment 35, 3,7-Dimethyl-1-((2-(1,1,1-trifluoro-2-hydroxypropan-2-yl)thiazol-5-yl)methyl)-1H-purine-2,6-(3H,7H)-dione] | 10 to 50 |
| Cn1cnc2c1c(=O)n(Cc1cccc(C(C)(O)C(F)(F)F)c1)c(=O)n2C (stereo not shown) [Embodiment 26, 3,7-dimethyl-1-(3-(1,1,1-trifluoro-2-hydroxypropan-2-yl)benzyl)-1H-purine-2,6-(3H,7H)-dione] | 10 to 50 |
| CC(C)n1cnc2c1c(=O)n(CC1CCC(O)(C(F)(F)F)CC1)c(=O)n2C (stereo not shown) [Embodiment 48] | 10 to 50 |
| Cn1cnc2c1c(=O)n(CCC1CCC(O)(C(F)(F)F)CC1)c(=O)n2C (single isomer, unassigned) [Embodiment 15 isomer 1] | 1 to 10 |
| Cn1cnc2c1c(=O)n(CC1CC(C(C)(O)C(F)(F)F)C1)c(=O)n2C (single isomer, unassigned) [Embodiment 9 isomer 1] | 10 to 50 |
| Cn1cnc2c1c(=O)n(CC1CC(O)(C(F)(F)F)C1)c(=O)n2C (stereo not shown) [Embodiment 5] | 10 to 50 |

| Molecule | IC50 [µM] |
| --- | --- |
| Cn1c(=O)n(CC2CCC(O)(C(F)(F)F)CC2)c(=O)c2c1ncn2CC1CC1 (single isomer, unassigned) [Embodiment 50 isomer 1, 7-(Cyclopropylmethyl)-1-((4-hydroxy-4-(trifluoromethyl)cyclohexyl)methyl)-3-methyl-1H-purine-2,6(3H,7H)-dione] | 10 to 50 |
| CCC(O)(CC)C1CCC(Cn2c(=O)c3c(ncn3C)n(C)c2=O)CC1 (stereo not shown) [Embodiment 18, 1-((4-(3-Hydroxypentan-3-yl)-cyclohexyl)methyl)-3,7-dimethyl-1H-purine-2,6(3H,7H)-dione] | 1 to 10 |
| Cc1sc(C(C)(O)C(F)(F)F)nc1Cn1c(=O)c2c(ncn2C)n(C)c1=O (stereo not shown) [Embodiment 34] | 10 to 50 |
| Cn1c(=O)n(Cc2ccc(C(C)(O)C(F)(F)F)cn2)c(=O)c2c1ncn2CC1CC1 (stereo not shown) [Embodiment 56] | 10 to 50 |
| Cn1cnc2c1c(=O)n(C[C@H]1CC[C@H](C(C)(O)C(F)(F)F)CC1)c(=O)n2C (stereo partly drawn) [Embodiment 19, 3,7-Dimethyl-1-[[trans-4-(2,2,2-trifluoro-1-hydroxy-1-methyl-ethyl)cyclohexyl]methyl]purine-2,6-dione] | 10 to 50 |
| CC(C)Cn1cnc2c1c(=O)n(CC1CCC(O)(C(F)(F)F)CC1)c(=O)n2C (stereo not shown) [Embodiment 57, 1-((4-Hydroxy-4-(trifluoromethyl)cyclohexyl)methyl)-7-isobutyl-3-methyl-1H-purine-2,6(3H,7H)-dione] | 1 to 10 |
| 3,7-Dimethyl-1-[[3-[2,2,2-trifluoro-1-hydroxy-1-(trifluoromethyl)ethyl]cyclobutyl]methyl]purine-2,6-dione [Embodiment 8 isomer 2] | 10 to 50 |
| Cn1cnc2c1c(=O)n(C[C@H]1CC[C@H](C(O)(C(F)(F)F)C(F)(F)F)CC1)c(=O)n2C [Embodiment 20, 3,7-Dimethyl-1-[trans-4-(2,2,2-trifluoro-1-hydroxy-1-trifluoromethyl-ethyl)cyclohexylmethyl]-3,7-dihydro-purine-2,6-dione] | 10 to 50 |
| Cn1c(=O)n(CC2(C)CCC(O)(C(F)(F)F)CC2)c(=O)c2c1ncn2CC1CC1 (stereo not shown) [Embodiment 53] | 10 to 50 |
| Cn1cnc2c1c(=O)n(Cc1cc(C(O)(C(F)(F)F)C(F)(F)F)no1)c(=O)n2C [Embodiment 31] | 10 to 50 |
| CCC1(O)CCCC(CCn2c(=O)c3c(ncn3C)n(C)c2=O)C1 (stereo not shown) [Embodiment 22, 1-(2-(3-Ethyl-3-hydroxycyclohexyl)ethyl)-3,7-dimethyl-1H-purine-2,6(3H,7H)-dione] | 1 to 10 |
| Cn1c(=O)n(CC2CCC(C)(O)CC2)c(=O)c2c1ncn2CC1CC1 (single isomer, unassigned) [Embodiment 51 isomer 1] | 10 to 50 |
| Cn1c(=O)n(CC2CCC(C)(O)CC2)c(=O)c2c1ncn2CC(F)(F)F (single isomer, unassigned) [Embodiment 46 isomer 2] | 10 to 50 |
| Cn1cnc2c1c(=O)n(CC1(C(C)(O)C(F)(F)F)CC1)c(=O)n2C (stereo not shown) [Embodiment 4, 3,7-Dimethyl-1-((1-(1,1,1-trifluoro-2-hydroxypropan-2-yl)cyclopropyl)methyl)-1H-purine-2,6-(3H,7H)-dione] | 1 to 10 |
| CCn1cnc2c1c(=O)n(CCCCC(O)(CC)CC)c(=O)n2C [Embodiment 42, 7-Ethyl-1-(5-ethyl-5-hydroxyheptyl)-3-methyl-1H-purine-2,6(3H,7H)-dione] | 1 to 10 |
